Where two headings read alike, the source gives them in different places.

The test system of test [1] is LTB4-induced CD11b expression in neutrophils. In words: CD11b assay, mouse whole blood. Particulars: Neutrophil, 25 nM LTB4. The test is classed as cell-based. The protocol:
EDTA anti-coagulated blood is collected from human donors or mice as before. For in vitro experiments, 8 or 10 point dose response curves of test compounds are assayed at final concentrations of 78 nM-10 μM or 20 nM-10 μM respectively. ½ serial dilutions of compound at 1000× of final assayed concentration are prepared in DMSO. Compound is then diluted to 10× in DPBS (DMSO concentration is now 1%). 10 μL of compound dilutions (at 10× in DPBS) or 1% DMSO in DPBS are added to wells of a 96 deep well plate. 90 μL whole blood is added and incubated 20 min at room temperature. 11 μL of 10×LTB4 (final concentration 25 nM for mouse or 10 nM human) is added and incubated at 37° C. for 30 min. The reaction is stopped by incubating the plate on ice for 5 min. The cells are stained with 10 μL anti-mouse or anti-human CD11b-PE (BD Biosciences diluted 1:20 for mouse and undiluted for human) and incubated on ice for 30 min in the dark (for mouse experiments, 10 μL anti-mouse LY6G-FITC antibody (BD Pharmingen) diluted 1:25 is added for the final 10 min) Red blood cells (RBCs) are lysed by adding 1.5 mL of 1×BD FACSlyse (BD Biosciences) and incubating for 10 min at room temperature in the dark. […] Data are analyzed with WinList software (Verity Software House) to determine mean and median fluorescent intensity values for CD11b-PE from neutrophil population.

Test [2] addresses T1, hBLT2 (Homo sapiens, UniProt Q9NPC1).
T1 construct: expressed in transfected cells; membrane preparation
T1 sequence (Q9NPC1 1-358): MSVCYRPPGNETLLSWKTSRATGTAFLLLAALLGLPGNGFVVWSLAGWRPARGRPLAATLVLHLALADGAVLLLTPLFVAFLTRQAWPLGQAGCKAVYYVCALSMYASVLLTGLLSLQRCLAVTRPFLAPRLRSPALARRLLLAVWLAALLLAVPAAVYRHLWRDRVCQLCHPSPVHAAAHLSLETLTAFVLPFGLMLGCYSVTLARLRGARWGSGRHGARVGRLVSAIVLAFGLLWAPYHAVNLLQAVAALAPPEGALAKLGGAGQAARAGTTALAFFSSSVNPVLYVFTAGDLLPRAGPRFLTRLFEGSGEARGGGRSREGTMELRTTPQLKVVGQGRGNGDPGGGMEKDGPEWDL
In words: [3H]-LTB4 binding assay in hBLT2 containing membranes. As to conditions: [3H]-LTB4 displacement, hBLT2/CHO-K1 membranes. The protocol:
[^3H]-LTB4 and known BLT1 and BLT2 antagonists are used to generate LTB4 displacement curves and IC50 values for compounds of the present invention. Receptor inhibition by compounds of the present invention is determined relative to BLT1 inhibitor and BLT2 inhibitor reference molecules to obtain percent efficacies.
hBLT2 Test Compound Preparations: For hBLT2 assays, test compounds are prepared in DMSO to make up a 10 mM stock solution. The stock solution is initially diluted 1:10 in Buffer A (50 mM HEPES pH 7.4, 10 mM MgCl2, 10 mM NaCl, 10% glycerol (v/v), 1% BSA (w/v)), followed by 3× serial dilutions in Buffer B (50 mM HEPES pH 7.4, 10 mM MgCl2, 10 mM NaCl, 10% glycerol (v/v), 1% BSA (w/v), 10% DMSO (v/v)) creating a ten-point dilution curve. Final compound concentrations ranging from 300 μM to 15.2 nM are plated in a 96-well round-bottom plate for conducting the in vitro assays. […]
[^3H]-LTB4 (30 μL of 2.8 nM, PerkinElmer NET-852) is aliquoted into each well of a Falcon® 3072 microtiter plate (BD Biosciences). […] The plate is allowed to sit for 16 h and then read on a Packard Instrument Company Topcount® for 1 min. […]

As for `CCCc1c(NC(=O)CC(C)(C)C(=O)[O-])cccc1OCCCOc1cc(O)c(-c2ccc(F)cc2)cc1CC.[Na+]` [Example 2, Sodium 4-[[3-[3-[2-ethyl-4-(4-fluorophenyl)-5-hydroxy-phenoxy]propoxy]-2-propyl-phenyl]amino]-2,2-dimethyl-4-oxo-butanoate], the IC50 was 1.45 µM in test [1], 16.5 µM in test [2] (read-out: absolute IC50) and 15.4 µM in test [2] (read-out: relative IC50).

The record behind these values is patent publication US9187411B2, “Leukotriene B4 antagonist compound” (Eli Lilly and Company, priority 2012, dated 2015).
